Test system: hyperuricemic gout subjects with moderate to severe renal impairment
Experiment: Example 1 study: serum creatinine (sCr)
Assay type: in vivo, human
Settings: for mean sCr: no prior and/or current use ARB or ACEi; for changes in sCr: prior and/or current use of ACEi; for changes in sCr / changes in mean sCr levels: Months 6 and 12; for change in sCr over time compared with placebo: sCr 2.0 to <2.5 mg/dL at Baseline; for change in sCr over time compared to placebo: sUA of 9.0 to <10.0 mg/dL at Baseline
Description: Efficacy of febuxostat was assessed by measurement of serum creatinine (and calculation of eGFR), clinic systolic and diastolic BP, and sUA levels. Serum samples for the analysis of serum creatinine (and calculation of eGFR) were collected at the time points stipulated in Schedule of Study Procedures (Table 1.). The primary efficacy variable was the change from Baseline to Month 12 in sCr. Summary statistics were presented for Baseline, postbaseline, and change from Baseline by treatment group at each visit. The primary analysis was based on the analysis of covariance (ANCOVA) model for change from baseline to Month 12 for the primary efficacy variable. The model included treatment as a factor, and the baseline sCr and prior use of an ARB or an ACEi (subjects taking an ARB or an ACEi or not taking an ARB or an ACEi) as covariates.

Compound: Cc1nc(-c2ccc(OCC(C)C)c(C#N)c2)sc1C(=O)O [Febuxostat, 2-[3-cyano-4-(2-methylpropoxy)phenyl]-4-methylthiazole-5-carboxylic acid]
- renal function preservation compared with febuxostat 40/80 mg QD (30 mg BID): better renal function preservation
- Serum Creatinine, Change from Baseline (30 mg BID, Day 14): 0.09 mg/dL
- Serum Creatinine, Mean (30 mg BID, Day 14): 2.18 mg/dL
- Serum Creatinine, Change from Baseline (30 mg BID, Month 1): 0.13 mg/dL
- Serum Creatinine, Mean (30 mg BID, Month 1): 2.23 mg/dL
- Serum Creatinine, Change from Baseline (30 mg BID, Month 3): 0.09 mg/dL
- Serum Creatinine, Mean (30 mg BID, Month 3): 2.18 mg/dL
- Serum Creatinine, Change from Baseline (30 mg BID, Month 6): 0.03 mg/dL
- Serum Creatinine, Mean (30 mg BID, Month 6): 2.12 mg/dL
- Serum creatinine change from Baseline, LS mean (30 mg BID, Month 6): 0.04 mg/dL
- Serum creatinine change from Baseline, LS mean difference from placebo group (30 mg BID, Month 6): -0.11 mg/dL
- Serum Creatinine, Change from Baseline (30 mg BID, Month 9): 0.11 mg/dL
- Serum Creatinine, Mean (30 mg BID, Month 9): 2.21 mg/dL
- Serum Creatinine, Change from Baseline (30 mg BID, Month 12): 0.04 mg/dL
- Serum Creatinine, Mean (30 mg BID, Month 12): 2.13 mg/dL
- Serum creatinine change from Baseline, LS mean (30 mg BID, Month 12): 0.09 mg/dL
- Serum creatinine change from Baseline, LS mean difference from placebo group (30 mg BID, Month 12): -0.10 mg/dL
- mean sCr (30 mg BID): increased
- changes in sCr (30 mg BID): slight improvements
- changes in mean sCr levels (30 mg BID, prior and/or current use of ARB): minimal changes or a slight improvement
- change in sCr over time compared with placebo (30 mg BID): small favorable trend
- change in sCr over time compared to placebo (30 mg BID): small favorable trend
- changes in mean sCr levels (30 mg BID, subjects with moderate renal impairment): minimal changes
- Serum Creatinine, Change from Baseline (40/80 mg QD, Day 14): 0.08 mg/dL
- Serum Creatinine, Mean (40/80 mg QD, Day 14): 2.30 mg/dL
- Serum Creatinine, Change from Baseline (40/80 mg QD, Month 1): 0.05 mg/dL
- Serum Creatinine, Mean (40/80 mg QD, Month 1): 2.25 mg/dL
- Serum Creatinine, Change from Baseline (40/80 mg QD, Month 3): 0.04 mg/dL
- Serum Creatinine, Mean (40/80 mg QD, Month 3): 2.24 mg/dL
- Serum Creatinine, Change from Baseline (40/80 mg QD, Month 6): 0.06 mg/dL
- Serum Creatinine, Mean (40/80 mg QD, Month 6): 2.26 mg/dL
- Serum creatinine change from Baseline, LS mean (40/80 mg QD, Month 6): 0.07 mg/dL
- Serum creatinine change from Baseline, LS mean difference from placebo group (40/80 mg QD, Month 6): -0.08 mg/dL
- Serum Creatinine, Change from Baseline (40/80 mg QD, Month 9): 0.01 mg/dL
- Serum Creatinine, Mean (40/80 mg QD, Month 9): 2.22 mg/dL
- Serum Creatinine, Change from Baseline (40/80 mg QD, Month 12): 0.19 mg/dL
- Serum Creatinine, Mean (40/80 mg QD, Month 12): 2.40 mg/dL
- Serum creatinine change from Baseline, LS mean (40/80 mg QD, Month 12): 0.23 mg/dL
- Serum creatinine change from Baseline, LS mean difference from placebo group (40/80 mg QD, Month 12): 0.04 mg/dL
- mean sCr (40/80 mg QD): increased
- changes in sCr (40/80 mg QD): minimal changes
- change in sCr over time compared with placebo (40/80 mg QD): small favorable trend
- change in sCr over time compared to placebo (40/80 mg QD): small favorable trend
- changes in mean sCr levels (40/80 mg, prior and/or current use of ARB): minimal changes or a slight improvement
- changes in mean sCr levels (40/80 mg, subjects with moderate renal impairment): small increases

Source: patent US20180311217A1, “METHODS OF TREATMENT AND COMPOSITIONS WITH XANTHINE OXIDASE INHIBITORS” (Takeda Pharmaceuticals U.S.A., Inc., priority 2013, published 2018)
